From patent EP0725776B1, “3-ARYL-4-ALKYL AND 4,5-DIALKYL-4H-1,2,4-TRIAZOLES USEFUL AS MEMORY ENHANCERS” (MERRELL PHARMACEUTICALS INC., priority 1993, dated 1995)

Tests used:
[1] = test system: RAT CORTICAL MEMBRANES; test: [3H]hemicholinium-3 binding in vitro in cortical membranes after in vivo administration; set-up: species or system Male Sprague-Dawley rats; conditions: n=10
Source text: The pharmacological properties of these compounds as enhancers of memory and cognition and their relative potencies may be measured through their effect on neuro-transmitters in the brain. Since drugs that block GABA inhibition in the cholinergic neurons of the basal forebrain nuclei will stimulate cholinergic firing, thus stimulating memory, the capacity of the drugs to enhance cognition can be assessed by measuring the increase in cholinergic firing rate. The increase in cholinergic firing rate is measured indirectly by measuring choline uptake or [^3H] hemicholinium-3 binding in brain cells taken from treated animals.
To test for [^3H] hemicholinium-3 binding in brain cells from the brain cortex, drugs were dissolved in saline by sonication. Male Sprague-Dawley rats were dosed i.p. and sacrificed by decapitation 60 min after injection. […] Binding was measured by incubating the tissue with varying concentrations of [^3H]hemicholinium-3 in an isotonic Tris buffer (pH 7.4) for 60 min at room temperature. […] After drying, the filters were placed in scintillation cocktail and radioactivity was determined using a Beckman scintillation counter. The values for the Kd and Bmax were determined by nonlinear curve-fitting and the average values for samples of 3 or more animals reported. […]

[2] = test system: Diazepam-Induced Water Maze Learning Impairment; test: Reversal of diazepam-induced water maze learning impairment; format: in vivo, Male Sprague-Dawley rats; conditions: for Mean Latency ± S.E.M., Block 1 / Mean Latency ± S.E.M., Block 2 / Mean Latency ± S.E.M., Block 3: 8 rats
Source text: The activity of compounds of formula I in enhancing spacial learning ability and cognition can be tested by studying their ability to reverse a water maze learning impairment induced by the benzodiazepine, diazepam (R. G. M. Morris, Learning and Motivation 12, 239-260 (1982); M. P. Arolfo, and J. D. Brioni, Behavioral and Neural Biology 55, 131-6 (1991); R. K. McNamara and R. W. Skelton, Pharmacology, Biochemistry & Behavior 38, 651-8 (1991); R. K. McNamara and R. W. Skelton, Psychopharmacology 107, 347-51 (1992)).
Male Sprague-Dawley rats are trained in a 120-cm diameter water-filled tank to locate a hidden platform submerged just below the surface of the water. The location of the platform remained constant, but for each trial the animal was required to swim from one of three different starting locations around the edge of the tank. There were no proximal cues in the tank, so the animal had to use a spatial mapping strategy using the distal cues around the room to navigate to the hidden platform. The animals were given 9 successive training trials during the single training day. […] After the animal found or was placed on the platform, it was allowed to stay there for 30 seconds. The next trial commenced immediately following the 30 second stay on the platform. Latency to locate the platform was recorded for each trial using a computerized video tracking system for automated acquisition of the data.
Separate treatment groups of four animals each were run in each experiment. The results of two experiments were combined so that 8 rats were tested in each treatment group. The vehicle-vehicle group received vehicle (distilled water plus Tween) i.p. 60 minutes prior to the first trial and vehicle i.p. 20 minutes prior to the first trial. The vehicle-diazepam group received vehicle i.p. 60 minutes prior to the first trial and 2.5 mg/kg diazepam i.p. 20 minutes prior to the first trial. Two groups of animals were treated with 3-(3-fluorophenyl)-4-methyl-4H-1,2,4-triazole, a compound of formula I, prior to treatment with diazepam. One group received 20 mg/kg of 3-(3-fluorophenyl)-4-methyl-4H-1,2,4-triazole i.p. 60 minutes prior to the first trial and 2.5 mg/kg diazepam i.p. 20 minutes prior to the first trial, while the second group received 40 mg/kg of 3-(3-fluorophenyl)-4-methyl-4H-1,2,4-triazole i.p. 60 minutes prior to the first trial and 2.5 mg/kg diazepam i.p. 20 minutes prior to the first trial.
The latency scores for each animal were averaged into three blocks of three trials each (one trial from each starting location). A one-way ANOVA comparing the treatment groups was computed on the scores for each trial block. If the overall ANOVA was statistically significant, comparisons between individual treatment groups were made with Fisher's PLSD test.

[3] = reported by M. Y. Mhasalkar, et al., J. Med. Chem 14(3) 260-262, (1971); cited from earlier work
[4] = 20 mg/kg i.p. 60 min prior to first trial, diazepam 2.5 mg/kg i.p. 20 min prior
[5] = 40 mg/kg i.p. 60 min prior to first trial, diazepam 2.5 mg/kg i.p. 20 min prior
[6] = vehicle i.p. 60 min prior, diazepam alone 2.5 mg/kg i.p. 20 min prior to first trial

Cn1cnnc1-c1cccc(F)c1 [3-(3-Fluorophenyl)-4-methyl-4H-1,2,4-triazole]
Bmax ± SEM ([1]; [3H]hemicholinium-3 binding, rat cortex, dosed i.p. (1/mg/kg), sacrificed 60 min after injection): 20.4±2.48 fmol/mg Protein | % Increase in Bmax ([1]; over saline control, (1/mg/kg) i.p., 60 min): 45% | Mean Latency ± S.E.M., Block 1 [2, 4]: 44.68 ± 2.56 s | Mean Latency ± S.E.M., Block 2 [2, 4]: 37.67 ± 6.01 s | Mean Latency ± S.E.M., Block 3 [2, 4]: 35.21 ± 6.00 s | Effect on diazepam-induced impairment ([2]; 20 mg/kg i.p. plus diazepam 2.5 mg/kg, result in words): attenuated diazepam-induced impairment | Mean Latency ± S.E.M., Block 1 [2, 5]: 58.19 ± 1.01 s | Mean Latency ± S.E.M., Block 2 [2, 5]: 52.83 ± 3.85 s | Mean Latency ± S.E.M., Block 3 [2, 5]: 53.59 ± 4.31 s | Effect on diazepam-induced impairment ([2]; 40 mg/kg i.p. plus diazepam 2.5 mg/kg, result in words): did not affect the diazepam-induced impairment

Cn1cnnc1-c1ccc(Cl)cc1 [3-(4-Chlorophenyl)-4-methyl-4H-1,2,4-triazole]
hypoglycemic activity [3]: hypoglycemic activity

CN1C(=O)CN=C(c2ccccc2)c2cc(Cl)ccc21 [diazepam, reference compound]
Effect on water maze learning ([2]; diazepam 2.5 mg/kg i.p. versus vehicle-vehicle group, p < .05 on all three blocks, result in words): significantly impaired water maze learning | Mean Latency ± S.E.M., Block 1 [2, 6]: 57.70 ± 2.30 s | Mean Latency ± S.E.M., Block 2 [2, 6]: 49.67 ± 6.06 s | Mean Latency ± S.E.M., Block 3 [2, 6]: 55.76 ± 4.24 s
